Assay results: patent US10633363B2, “EPAC1 activators as HIV latency reversal agents (LRA)” (The Board of Regents of The University of Texas System, priority 2017, dated 2020)
“Also recorded” adds a separate entry of the source.

Experiments:
latent HIV in NNTC PBMC [1] = experiment: Activation of latent HIV gene expression (3'LTR PCR) in PBMC of ART-suppressed, aviremic HIV-infected subjects (NNTC); format: cell-based; conditions: for HIV gene expression, PCR quantification of HIV 3'LTR vs NC: fresh and frozen PBMC of one NNTC subject, 48 hours, ZL0568 10 M (so in the source)
Description: FIG. 6A. Relative HIV gene expression in one representative PBMC following different treatments. Fresh and cryopreserved PBMC of the same donor were compared.
FIG. 6C. Relative HIV gene expression in multiple BMCs (n=8) after treatments were summarized.
The ability of compound ZL0568 to activate latent HIV in PBMC of ART-suppressed, aviremic HIV-infected subjects was tested. PBMC samples were obtained from the well-established HIV infection cohort from the National NeuroAIDS Tissue Consortium (NNTC) with (66, 67). First, feasibility of using NNTC's cryopreserved PBMC in the experiments was explored by comparing the results from fresh and frozen PBMC of the same subject. […] Thus, fresh and cryopreserved PBMC from a representative NNTC subject (ID: 8400337177) were stimulated with compound ZL0568 (10 M) as compared to stimulation with mock (NC) or positive controls (JQ1, Prostratin and PMA; concentrations of positive controls were used as previously reported (21, 25)).
(§1) HIV release in the supernatants of PBMC at 72 hours after treatments using the 1G5 luciferase reporter assay (68, 69) was measured and very similar results were found (FIG. 6B). We noted that although the levels of HIV activation in frozen PBMC were generally lower than those in fresh PBMC, the differences among different treatments were consistently detected (FIG. 6A-B), supporting the feasibility of using NNTC's cryopreserved PBMCs in our system.
(§2) Compound ZL0568 was further tested in multiple NNTC's donor PBMCs (n=8) for HIV gene activation (FIG. 6C) as well as viral production (FIG. 6D).

[2] = tested on: latent HIV in J-lat cells; experiment: Activation of GFP expression (latent HIV reactivation) in J-lat cells; format: cell-based; conditions: for Ability to stimulate GFP expression in J-lat cells compared with ZL0568 (SAR): 10 μM; for GFP expression in J-lat cells: flow cytometry, 10 M (so in the source)
Description: FIG. 2A. Assessment of compound ZL0568, an exemplary embodiment of the invention, for the ability to stimulate GFP expression in J-lat cells. GFP fluorescence intensity was measured by microplate reader.
FIG. 2C. Dose-dependent activation of GFP expression in J-lat cells by ZL0568 measured by flow cytometry.
Dose-dependent activation of GFP expression by ZL0568 in J-lat cells was confirmed by flow cytometric analysis with an EC50 value of 8 μM (in DMSO) (FIG. 2C-D). […] See e.g., FIG. 8A-E.
Specificity and structure-activity relationship (SAR) for ZL0568 was determined by synthesizing and testing four analogues (ZL0696, ZL0697, ZL0699 and ZL06100; 10 μM).

T cells [3] = experiment: Caspase-3 and Caspase-1 expression in T cells; format: cell-based, human; conditions: 24 hours, vs NC
Description: FIG. 8C. Caspase-3 and Caspase-1 expression in T cells with ZL0568 stimulation as compared to NC (24 hours).
(§3) Cellular toxicity profile of ZL0568 and its effects on human T cells was evaluated. […] This possibility was precluded since apoptosis was recently shown to be associated with HIV reactivation (68).

[4] = tested on: latent HIV in human monocytic U1 cells; experiment: Activation of latent HIV in U1 cells, intracellular HIV p24 staining by flow cytometry; format: cell-based; conditions: various concentrations, 48 hours
Description: FIG. 4. Activation of latent HIV by compound ZL0568 in U1 cells. U1 cells were stimulated with various concentrations of compound ZL0568 as indicated or mock-stimulated (NC) for 48 hours. Reactivation of latent HIV were examined based on intracellular HIV p24 staining (p24%) by flow cytometry.
Whether or not compound ZL0568, an exemplary embodiment of the invention, can activate latent HIV in human monocytic U1 cells was evaluated. In particular, U1 cells were stimulated with various concentrations of ZL0568 or mock DMSO (NC). Reactivation of latent HIV was measured based on intracellular HIV p24 staining by flow cytometry.

T cells [5] = experiment: T-cell activation marker expression (CD25, CD38, CD69, HLA-DR) by flow cytometry; format: cell-based, human; conditions: 10 μM
Description: FIG. 8D. T-cell activation by ZL0568. Activation marker expression (CD25, CD38, CD69, HLA-DR) on T-cells was measured flow cytometry and compared between ZL0568 (10 uM) and NC.
as §3

J-lat cells = experiment: Cellular toxicity on J-lat cells (% viable cells); format: cell-based; conditions: J-lat cells; 40 μM
Description: (§4) FIG. 8A. Cellular toxicity of ZL0568 on J-lat cells. Toxicity was measured as % viable cells at Day 1, 2 and 3 after stimulation at various concentrations.
as §3

[6] = Cellular toxicity on J-lat cells (% viable cells); format: cell-based; conditions: stated for J-lat and human PBMC together; cell type not specified; read-out: cytotoxicity CC50
Description: as §4, §3

latent HIV in NNTC PBMC [7] = experiment: HIV release in supernatants of treated PBMC, 1G5 luciferase reporter assay; format: cell-based; conditions: multiple NNTC donor PBMCs (n=8), p<0.01
Description: FIG. 6B. Relative viral release in one representative PBMC following different treatments. Fresh and cryopreserved PBMC of the same donor were compared.
FIG. 6D. HIV release in supernatants of treated PBMC was measured by 1G5 reporter luciferase assay and compared between ZL0568 and NC.
as §1, §2

human PBMC = experiment: Cellular toxicity on human PBMC (% viable cells); format: cell-based; conditions: 40 μM
Description: FIG. 8B. Cellular toxicity of ZL0568 on human PBMC. Toxicity was measured as % viable cells at Day 1, 2 and 3 after stimulation at various concentrations.
as §3

HIV in RV21 PBMC = experiment: Activation of HIV gene expression in PBMC of ART-naive, viremic HIV-infected individuals (RV21); format: cell-based
Description: FIG. 5A Activation of HIV gene expression (3′ LTR) in a representative RV21 PBMC on Day 1, 2 and 5 after stimulation. The data are shown as fold change to NC.
A significant limitation for some existing LRAs (e.g. HDACi & BETi) is related to their limited efficacy to activate latent HIV in primary cells (16, 17, 19-21). Whether or not our compound ZL0568 can stimulate HIV gene expression in human PBMC from ART-naïve, viremic HIV-infected individuals was assessed using cells from the RV21, an ART-naïve, HIV infection cohort at the Military HIV Research Program (MHRP). See e.g., Liu F, et al. Sequential Dysfunction and Progressive Depletion of Candida albicans-Specific CD4 T Cell Response in HIV-1 Infection. PLoS Pathog 12(6):e1005663 (2016). A widely-used method to detect HIV transcription in cells from infected individuals involves measurement of RNAs containing HIV gag sequences. […] See e.g., Bullen C K, Laird G M, Durand C M, Siliciano J D, & Siliciano R F, New ex vivo approaches distinguish effective and ineffective single agents for reversing HIV-1 latency in vivo. Nat Med 20(4):425-429 (2014).
Therefore, in addition to Gag, a new PCR assay, established by the Siliciano group, specific for intracellular HIV mRNA using a primer/probe set that detects the 3′-sequence common to all correctly terminated HIV RNAs was employed. […]

T cells [8] = experiment: Expression of cytokines in T cells by intracellular cytokine staining; format: cell-based, human; conditions: 10 uM, 24 hours
Description: FIG. 8E. Expression of cytokines (% IFN-r, IL-2, MIP-1b or IL-17) in T cells between ZL0568 treatment (10 uM) and NC (24 hours), measured by intracellular cytokine staining.
as §3

[9] = tested on: EPAC (EPAC1) in J-lat cells; experiment: 007-AM-stimulated GFP expression in J-lat cells after CRISPR/Cas9 knock out of EPAC; format: cell-based
Text: FIG. 3F. Functional involvement of EPAC in 007-AM stimulated HIV reactivation in J-lat cells.

CC(=O)O[C@@]12C[C@@H](C)[C@@]3(O)[C@@H](C=C(CO)C[C@]4(O)C(=O)C(C)=C[C@@H]34)[C@@H]1C2(C)C [Prostratin]
HIV gene expression, PCR quantification of HIV 3'LTR vs NC (latent HIV in NNTC PBMC [1]): markedly activated HIV gene expression

Cn1cc(C(=O)/C(C#N)=N/Nc2ccc3c(c2)CCC(=O)N3)c2ccccc21 [ZL06100, (E)-2-(1-Methyl-1H-indol-3-yl)-2-oxo-N-(2-oxo-1,2,3,4-tetrahydroquinolin-6-yl)acetohydrazonoyl Cyanide]
Ability to stimulate GFP expression in J-lat cells compared with ZL0568 (SAR) [2]: still maintained some potency

Cn1cc(C(=O)/C(C#N)=N/Nc2cc(Cl)cc(Cl)c2)c2ccccc21 [ZL0699, (E)-N-(3,5-Dichlorophenyl)-2-(1-methyl-1H-indol-3-yl)-2-oxoacetohydrazonoyl Cyanide]
Ability to stimulate GFP expression in J-lat cells compared with ZL0568 (SAR) [2]: substantially abrogated the ability to stimulate GFP expression

Cc1sc2c(c1C)C(c1ccc(Cl)cc1)=N[C@@H](CC(=O)OC(C)(C)C)c1nnc(C)n1-2 [JQ1, reference compound]
HIV gene expression, PCR quantification of HIV 3'LTR vs NC (latent HIV in NNTC PBMC [1]): failed to do so | GFP expression in J-lat cells [2]: 8.97%

CC(C)(C)c1cc(C(=O)/C(C#N)=N/Nc2cccc(Cl)c2)no1 [ESI-09, reference compound]
GFP expression / HIV reactivation in J-lat cells (in words) [2]: no HIV activation effect; also recorded: no GFP-activating effect

Cn1cc(C(=O)/C(C#N)=N/Nc2ccc(Cl)c(C(F)(F)F)c2)c2ccccc21 [ZL0568, (E)-N-(4-chloro-3-(trifluoromethyl)phenyl)-2-(1-methyl-1H-indol-3-yl)-2-oxoacetohydrazonoyl Cyanide]
Induction of cell death signals (caspase-3/caspase-1) (T cells [3]): no preferential induction of cell death signals | HIV reactivation in U1 cells based on p24 expression [4]: could also stimulate HIV reactivation in U1 cells in a dose-dependent manner | CD69 and HLA-DR expression (T cells [5]): no significant increase | T-cell activation, expression of CD25 and CD38 (T cells [5]; p<0.001): modest level of T-cell activation | Cellular toxicity, % viable cells (J-lat cells): limited cellular toxicity | CC50 [6]: 75 µM | Viral production vs NC (latent HIV in NNTC PBMC [7]): enhanced HIV activation | HIV gene expression, PCR quantification of HIV 3'LTR vs NC (latent HIV in NNTC PBMC [1]): significant HIV gene expression | HIV gene activation vs NC (latent HIV in NNTC PBMC [1]; multiple NNTC donor PBMCs (n=8), p<0.01): enhanced HIV activation | Cellular toxicity, % viable cells (human PBMC): limited cellular toxicity | HIV gene expression (3'LTR and Gag together) vs NC (HIV in RV21 PBMC; ART-naive RV21 PBMCs, Day 2, p<0.005): could significantly activate HIV gene expression | HIV 3'-LTR gene expression, time course (HIV in RV21 PBMC; representative RV21 PBMC, 10 M (so in the source), Day 1, 2 and 5): induced HIV 3′-TLR expression on Day 2 after stimulation, which became less significant on Day 5 | Expression of inflammatory cytokines in T cells (IFN-γ, IL-2, MIP-1b, IL-17) (T cells [8]): did not induce expression of inflammatory cytokines | EC50 ([2]; Human immunodeficiency virus 1, flow cytometric analysis, in DMSO, read-out: EC50, dose-dependent activation of GFP expression in J-lat cells): 8 µM | GFP expression / HIV reactivation in J-lat cells (in words) [2]: significant GFP expression | GFP expression in J-lat cells [2]: 21.7%

Cn1cc(C(=O)/C(C#N)=N/Nc2ccccc2Cl)c2ccccc21 [ZL0696, (E)-N-(2-Chlorophenyl)-2-(1-methyl-1H-indol-3-yl)-2-oxoacetohydrazonoyl Cyanide]
Ability to stimulate GFP expression in J-lat cells compared with ZL0568 (SAR) [2]: substantially abrogated the ability to stimulate GFP expression

Cn1cc(C(=O)/C(C#N)=N/Nc2cccc(Cl)c2)c2ccccc21 [ZL0697, (E)-N-(3-Chlorophenyl)-2-(1-methyl-1H-indol-3-yl)-2-oxoacetohydrazonoyl Cyanide]
Ability to stimulate GFP expression in J-lat cells compared with ZL0568 (SAR) [2]: substantially abrogated the ability to stimulate GFP expression

CCCCCCCCCCCCCC(=O)O[C@@H]1[C@@H](C)[C@@]2(O)[C@@H](C=C(CO)C[C@]3(O)C(=O)C(C)=C[C@@H]23)[C@@H]2C(C)(C)[C@]12OC(C)=O [PMA]
HIV gene expression, PCR quantification of HIV 3'LTR vs NC (latent HIV in NNTC PBMC [1]): markedly activated HIV gene expression

CO[C@@H]1[C@@H]2OP(=O)(OCOC(C)=O)OC[C@H]2O[C@H]1n1c(Sc2ccc(Cl)cc2)nc2c(N)ncnc21 (stereo partly shown) [007-AM, reference compound]
007-AM-stimulated GFP expression after ablation of EPAC [9]: marked decrease | GFP expression / HIV reactivation in J-lat cells (in words) [2]: significant HIV reactivation | GFP expression in J-lat cells [2]: 12.8%
